Test results taken from patent US20240246942A1, “KINASE INHIBITORS FOR THE TREATMENT OF NEURODEGENERATIVE DISEASES” (priority 2020, published 2024).

Experiments:
Assay in all cases: biochemical
[1] = target: T1, panel of 374 wild-type kinases (Homo sapiens, UniProt Q14012); details: read-out: % Enzyme Activity (relative to DMSO controls), CAMK1a
T1 construct: purchased Reaction Biology Corporation

[2] = target: T2, panel of 374 wild-type kinases (Homo sapiens, UniProt Q9H3Y6); details: read-out: % Enzyme Activity (relative to DMSO controls), kinase SRMS
T2 construct: purchased Reaction Biology Corporation

[3] = target: T3, panel of 374 wild-type kinases (Homo sapiens, UniProt Q13153); details: read-out: % Enzyme Activity (relative to DMSO controls), kinase PAK1
T3 construct: purchased Reaction Biology Corporation
T3 sequence (Q13153 whole entry): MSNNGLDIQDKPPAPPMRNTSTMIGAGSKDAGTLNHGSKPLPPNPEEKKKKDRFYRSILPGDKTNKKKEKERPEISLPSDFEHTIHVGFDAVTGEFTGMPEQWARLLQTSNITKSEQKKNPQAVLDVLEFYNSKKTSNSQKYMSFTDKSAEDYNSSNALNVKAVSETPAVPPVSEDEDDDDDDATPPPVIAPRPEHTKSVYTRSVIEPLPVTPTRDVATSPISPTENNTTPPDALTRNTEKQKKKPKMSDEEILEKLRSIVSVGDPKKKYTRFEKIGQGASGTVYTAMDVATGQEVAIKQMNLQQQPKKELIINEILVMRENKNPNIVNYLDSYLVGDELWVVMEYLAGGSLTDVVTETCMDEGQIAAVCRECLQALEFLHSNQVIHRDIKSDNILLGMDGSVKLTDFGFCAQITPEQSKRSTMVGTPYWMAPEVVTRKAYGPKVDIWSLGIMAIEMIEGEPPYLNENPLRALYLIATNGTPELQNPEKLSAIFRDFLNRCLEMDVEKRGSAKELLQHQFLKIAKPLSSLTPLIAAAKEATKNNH

[4] = target: T4, panel of 374 wild-type kinases (Homo sapiens, UniProt Q9BZL6); details: read-out: % Enzyme Activity (relative to DMSO controls), kinase PKD2/PRKD2
T4 construct: purchased Reaction Biology Corporation
T4 sequence (Q9BZL6 1-878): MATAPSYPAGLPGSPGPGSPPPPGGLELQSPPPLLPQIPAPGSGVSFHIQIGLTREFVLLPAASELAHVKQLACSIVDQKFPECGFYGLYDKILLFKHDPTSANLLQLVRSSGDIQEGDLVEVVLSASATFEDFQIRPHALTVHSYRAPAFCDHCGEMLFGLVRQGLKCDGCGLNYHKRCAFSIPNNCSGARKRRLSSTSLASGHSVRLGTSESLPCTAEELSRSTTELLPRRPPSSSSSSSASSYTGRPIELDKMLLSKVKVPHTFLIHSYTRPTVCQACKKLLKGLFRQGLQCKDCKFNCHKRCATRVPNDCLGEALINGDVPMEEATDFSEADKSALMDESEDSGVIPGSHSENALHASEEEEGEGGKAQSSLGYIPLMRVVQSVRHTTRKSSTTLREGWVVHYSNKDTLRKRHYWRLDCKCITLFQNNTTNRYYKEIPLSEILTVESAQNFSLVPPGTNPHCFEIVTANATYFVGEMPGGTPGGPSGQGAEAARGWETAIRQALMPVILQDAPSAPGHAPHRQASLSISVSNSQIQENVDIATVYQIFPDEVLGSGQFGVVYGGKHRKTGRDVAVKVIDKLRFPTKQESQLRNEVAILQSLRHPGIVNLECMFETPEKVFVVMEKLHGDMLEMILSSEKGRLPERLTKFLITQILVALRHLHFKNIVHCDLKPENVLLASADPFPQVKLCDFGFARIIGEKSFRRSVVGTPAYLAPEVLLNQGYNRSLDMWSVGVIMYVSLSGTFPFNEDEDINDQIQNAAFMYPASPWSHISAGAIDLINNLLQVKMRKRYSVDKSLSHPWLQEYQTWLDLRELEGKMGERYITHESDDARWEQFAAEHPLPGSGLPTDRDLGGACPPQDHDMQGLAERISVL

[5] = target: T5, panel of 374 wild-type kinases (Homo sapiens, UniProt O95747); details: read-out: % Enzyme Activity (relative to DMSO controls), OSR1/OXSR1
T5 construct: purchased Reaction Biology Corporation

[6] = target: T6, panel of 374 wild-type kinases (Homo sapiens, UniProt Q8N4C8); details: read-out: % Enzyme Activity (relative to DMSO controls), MINK/MINK1
T6 construct: purchased Reaction Biology Corporation

[7] = target: T7, panel of 374 wild-type kinases (Homo sapiens, UniProt P16591); details: read-out: % Enzyme Activity (relative to DMSO controls), FER
T7 construct: purchased Reaction Biology Corporation

[8] = target: T8, panel of 374 wild-type kinases (Homo sapiens, UniProt P05129); details: read-out: % Enzyme Activity (relative to DMSO controls), kinase PKCg
T8 construct: purchased Reaction Biology Corporation

[9] = target: T9, panel of 374 wild-type kinases (Homo sapiens, UniProt Q9H422); details: read-out: % Enzyme Activity (relative to DMSO controls), HIPK3
T9 construct: purchased Reaction Biology Corporation
T9 sequence (Q9H422 whole entry): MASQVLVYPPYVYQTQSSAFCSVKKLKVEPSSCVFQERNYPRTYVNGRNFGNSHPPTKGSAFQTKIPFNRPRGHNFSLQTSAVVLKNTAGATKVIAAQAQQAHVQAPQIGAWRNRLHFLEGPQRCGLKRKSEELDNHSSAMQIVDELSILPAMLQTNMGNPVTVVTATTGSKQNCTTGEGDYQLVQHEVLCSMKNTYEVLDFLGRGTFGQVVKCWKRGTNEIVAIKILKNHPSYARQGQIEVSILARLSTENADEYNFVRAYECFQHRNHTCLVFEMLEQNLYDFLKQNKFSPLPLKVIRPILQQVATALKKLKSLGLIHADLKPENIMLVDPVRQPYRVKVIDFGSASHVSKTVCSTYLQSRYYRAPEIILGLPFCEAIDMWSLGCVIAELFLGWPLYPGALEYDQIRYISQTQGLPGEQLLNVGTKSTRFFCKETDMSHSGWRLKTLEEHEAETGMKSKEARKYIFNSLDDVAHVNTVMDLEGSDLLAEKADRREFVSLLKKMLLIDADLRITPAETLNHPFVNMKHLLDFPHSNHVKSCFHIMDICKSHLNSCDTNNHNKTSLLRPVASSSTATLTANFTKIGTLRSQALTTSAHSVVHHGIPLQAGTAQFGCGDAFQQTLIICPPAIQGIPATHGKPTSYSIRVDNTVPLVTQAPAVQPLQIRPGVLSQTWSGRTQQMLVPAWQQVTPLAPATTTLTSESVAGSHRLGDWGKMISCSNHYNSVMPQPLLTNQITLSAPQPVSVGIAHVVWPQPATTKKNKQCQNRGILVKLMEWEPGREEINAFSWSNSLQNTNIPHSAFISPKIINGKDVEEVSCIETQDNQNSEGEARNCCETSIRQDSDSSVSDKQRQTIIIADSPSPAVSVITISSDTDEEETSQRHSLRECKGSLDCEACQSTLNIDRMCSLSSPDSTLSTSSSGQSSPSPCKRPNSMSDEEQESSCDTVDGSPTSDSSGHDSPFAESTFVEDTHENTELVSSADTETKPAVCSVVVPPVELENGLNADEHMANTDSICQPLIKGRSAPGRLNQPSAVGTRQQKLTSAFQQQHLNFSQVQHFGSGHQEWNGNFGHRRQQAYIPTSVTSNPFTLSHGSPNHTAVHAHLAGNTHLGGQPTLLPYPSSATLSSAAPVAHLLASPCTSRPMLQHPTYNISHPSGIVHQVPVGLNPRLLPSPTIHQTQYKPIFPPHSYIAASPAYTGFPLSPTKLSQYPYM

[10] = target: T10, panel of 374 wild-type kinases (Homo sapiens, UniProt Q9H093); details: read-out: % Enzyme Activity (relative to DMSO controls), kinase SNARK/NUAK2
T10 construct: purchased Reaction Biology Corporation
T10 sequence (Q9H093 1-628): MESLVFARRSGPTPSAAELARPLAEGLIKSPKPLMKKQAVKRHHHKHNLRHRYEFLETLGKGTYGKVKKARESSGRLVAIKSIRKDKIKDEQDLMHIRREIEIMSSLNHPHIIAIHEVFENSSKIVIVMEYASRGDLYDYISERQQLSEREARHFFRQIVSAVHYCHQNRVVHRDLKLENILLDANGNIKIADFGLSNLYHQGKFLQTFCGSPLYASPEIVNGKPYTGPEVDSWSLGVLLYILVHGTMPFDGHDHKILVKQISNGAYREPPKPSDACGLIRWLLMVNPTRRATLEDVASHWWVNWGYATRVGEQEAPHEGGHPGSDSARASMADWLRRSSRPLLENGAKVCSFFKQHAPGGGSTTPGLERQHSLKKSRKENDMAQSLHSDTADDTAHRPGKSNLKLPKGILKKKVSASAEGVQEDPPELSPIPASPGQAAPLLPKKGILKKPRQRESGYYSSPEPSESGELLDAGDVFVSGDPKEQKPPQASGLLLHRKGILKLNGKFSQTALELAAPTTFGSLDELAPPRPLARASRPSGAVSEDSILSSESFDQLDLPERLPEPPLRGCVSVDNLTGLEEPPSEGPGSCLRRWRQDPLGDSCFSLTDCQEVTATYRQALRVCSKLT

[11] = target: T11, panel of 374 wild-type kinases (Homo sapiens, UniProt P14616); details: read-out: % Enzyme Activity (relative to DMSO controls), IRR/INSRR
T11 construct: purchased Reaction Biology Corporation
T11 sequence (P14616 27-1297): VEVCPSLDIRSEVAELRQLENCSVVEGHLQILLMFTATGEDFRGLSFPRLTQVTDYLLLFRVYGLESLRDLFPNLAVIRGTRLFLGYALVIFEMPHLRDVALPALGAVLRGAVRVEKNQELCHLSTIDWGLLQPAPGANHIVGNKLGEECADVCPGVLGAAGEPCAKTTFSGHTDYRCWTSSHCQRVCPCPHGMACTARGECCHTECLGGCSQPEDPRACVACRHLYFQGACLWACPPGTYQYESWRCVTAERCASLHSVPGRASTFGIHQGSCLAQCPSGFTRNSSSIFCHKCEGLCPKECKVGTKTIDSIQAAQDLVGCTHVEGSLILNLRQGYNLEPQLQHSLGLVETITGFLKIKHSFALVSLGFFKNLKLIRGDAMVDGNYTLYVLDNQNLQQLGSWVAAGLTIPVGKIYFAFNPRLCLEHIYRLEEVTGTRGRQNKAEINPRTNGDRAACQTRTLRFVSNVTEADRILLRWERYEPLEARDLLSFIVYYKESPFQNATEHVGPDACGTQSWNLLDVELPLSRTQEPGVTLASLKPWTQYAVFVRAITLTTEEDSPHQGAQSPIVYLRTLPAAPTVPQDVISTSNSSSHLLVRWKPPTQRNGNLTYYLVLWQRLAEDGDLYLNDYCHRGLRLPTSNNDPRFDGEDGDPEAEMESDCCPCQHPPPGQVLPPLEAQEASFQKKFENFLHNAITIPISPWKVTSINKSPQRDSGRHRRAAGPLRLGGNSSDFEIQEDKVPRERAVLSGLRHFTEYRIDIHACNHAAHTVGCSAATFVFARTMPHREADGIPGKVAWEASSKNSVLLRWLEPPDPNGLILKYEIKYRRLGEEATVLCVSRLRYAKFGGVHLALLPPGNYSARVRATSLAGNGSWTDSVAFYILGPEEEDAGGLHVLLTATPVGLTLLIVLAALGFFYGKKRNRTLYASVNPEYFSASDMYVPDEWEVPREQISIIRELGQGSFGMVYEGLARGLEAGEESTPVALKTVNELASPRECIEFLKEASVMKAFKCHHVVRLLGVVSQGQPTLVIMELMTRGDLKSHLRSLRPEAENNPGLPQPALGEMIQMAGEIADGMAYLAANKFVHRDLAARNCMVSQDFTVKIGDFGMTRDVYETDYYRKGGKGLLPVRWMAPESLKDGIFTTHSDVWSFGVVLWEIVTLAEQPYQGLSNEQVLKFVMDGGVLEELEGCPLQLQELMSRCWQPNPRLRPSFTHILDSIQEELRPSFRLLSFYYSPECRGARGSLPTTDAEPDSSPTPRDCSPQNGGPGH

[12] = target: T12, panel of 374 wild-type kinases (Homo sapiens, UniProt O94921); details: read-out: % Enzyme Activity (relative to DMSO controls), CDK14/cyclin Y (PFTK1)
T12 construct: purchased Reaction Biology Corporation

[13] = target: T13, panel of 374 wild-type kinases (Homo sapiens, UniProt Q9P0L2); details: read-out: % Enzyme Activity (relative to DMSO controls), MARK1
T13 construct: purchased Reaction Biology Corporation

[14] = target: T14, panel of 374 wild-type kinases (Homo sapiens, UniProt Q76MJ5); details: read-out: % Enzyme Activity (relative to DMSO controls), ERN2/IRE2
T14 construct: purchased Reaction Biology Corporation
T14 sequence (Q76MJ5 35-926): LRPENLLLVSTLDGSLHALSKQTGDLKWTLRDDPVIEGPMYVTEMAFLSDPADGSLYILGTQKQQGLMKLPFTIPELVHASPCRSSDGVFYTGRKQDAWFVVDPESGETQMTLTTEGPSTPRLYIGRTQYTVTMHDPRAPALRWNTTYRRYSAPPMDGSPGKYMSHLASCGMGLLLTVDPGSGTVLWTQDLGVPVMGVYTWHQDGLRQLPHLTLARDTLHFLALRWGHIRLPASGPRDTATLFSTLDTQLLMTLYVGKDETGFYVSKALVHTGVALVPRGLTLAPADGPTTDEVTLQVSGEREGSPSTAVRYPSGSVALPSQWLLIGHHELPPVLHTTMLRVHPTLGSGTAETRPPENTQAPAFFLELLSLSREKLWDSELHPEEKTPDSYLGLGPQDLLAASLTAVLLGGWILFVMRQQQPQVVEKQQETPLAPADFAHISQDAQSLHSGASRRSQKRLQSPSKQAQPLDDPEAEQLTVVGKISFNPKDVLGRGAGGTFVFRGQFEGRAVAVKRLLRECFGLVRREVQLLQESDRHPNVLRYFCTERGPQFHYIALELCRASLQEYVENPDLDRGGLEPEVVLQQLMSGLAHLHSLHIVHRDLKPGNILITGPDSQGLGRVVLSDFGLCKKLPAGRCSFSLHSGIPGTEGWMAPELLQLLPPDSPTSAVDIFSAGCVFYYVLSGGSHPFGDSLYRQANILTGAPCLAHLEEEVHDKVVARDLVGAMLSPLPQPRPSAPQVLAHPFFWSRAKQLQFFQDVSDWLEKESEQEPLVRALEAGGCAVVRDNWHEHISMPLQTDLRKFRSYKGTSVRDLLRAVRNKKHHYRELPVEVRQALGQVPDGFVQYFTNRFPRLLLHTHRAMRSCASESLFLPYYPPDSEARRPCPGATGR

T1 sequence (Q14012 whole entry): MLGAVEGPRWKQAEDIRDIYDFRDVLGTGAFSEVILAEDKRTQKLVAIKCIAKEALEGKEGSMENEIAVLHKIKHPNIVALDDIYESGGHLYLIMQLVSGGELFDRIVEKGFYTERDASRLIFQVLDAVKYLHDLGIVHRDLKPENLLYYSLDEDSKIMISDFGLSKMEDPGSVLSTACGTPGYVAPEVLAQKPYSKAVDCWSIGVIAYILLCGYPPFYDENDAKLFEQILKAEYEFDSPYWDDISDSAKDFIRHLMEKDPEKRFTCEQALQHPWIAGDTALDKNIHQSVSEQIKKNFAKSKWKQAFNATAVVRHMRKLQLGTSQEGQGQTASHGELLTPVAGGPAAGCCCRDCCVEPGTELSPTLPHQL

SMILES | remaining activity at 5 µM [1] [%] | remaining activity at 5 µM [2] [%] | remaining activity at 5 µM [3] [%] | remaining activity at 5 µM [4] [%] | remaining activity at 5 µM [5] [%] | remaining activity at 5 µM [6] [%] | remaining activity at 5 µM [7] [%] | remaining activity at 5 µM [8] [%] | remaining activity at 5 µM [9] [%] | remaining activity at 5 µM [10] [%] | remaining activity at 5 µM [11] [%] | remaining activity at 5 µM [12] [%] | remaining activity at 5 µM [13] [%] | remaining activity at 5 µM [14] [%] | further results
O=C(Nc1cnn(-c2csc(C(=O)NC3COC3)c2)c1)Nc1ccccc1Cl [Compound 17, 4-(4-(3-(2-chlorophenyl)ureido)-1H-pyrazol-1-yl)-N-(oxetan-3-yl)thiophene-2-carboxamide] | 87.1 | 99.8 | 106 | 94.9 | 92.6 | 79.4 | 101 | 98 | 97.6 | 99.8 | 96 | 107 | 96.3 | 100 | –
Cc1sc(C(=O)NC2COC2)cc1-n1cc(NC(=O)Nc2c(F)cccc2Cl)cn1 [Compound 27, 4-(4-(3-(2-chloro-6-fluorophenyl)ureido)-1H-pyrazol-1-yl)-5-methyl-N-(oxetan-3-yl)thiophene-2-carboxamide] | – | – | – | – | – | – | – | – | – | – | – | – | – | – | remaining activity at 10 µM ([1]; 10 uM): 115%; remaining activity at 10 µM ([2]; 10 uM): 104%; remaining activity at 10 µM ([3]; 10 uM): 104%; remaining activity at 10 µM ([4]; 10 uM): 95.7%; remaining activity at 10 µM ([5]; 10 uM): 127%; remaining activity at 10 µM ([6]; 10 uM): 102%; remaining activity at 10 µM ([7]; 10 uM): 90%; remaining activity at 10 µM ([8]; 10 uM): 102%; remaining activity at 10 µM ([9]; 10 uM): 88.5%; remaining activity at 10 µM ([10]; 10 uM): 112%; remaining activity at 10 µM ([11]; 10 uM): 71.9%; remaining activity at 10 µM ([12]; 10 uM): 100%; remaining activity at 10 µM ([13]; 10 uM): 95.3%; remaining activity at 10 µM ([14]; 10 uM): 80.7%
O=C(Nc1cnn(-c2csc(C(=O)NC3COC3)c2)c1)Nc1c(F)cccc1Cl [Compound 25, 4-(4-(3-(2-chloro-6-fluorophenyl)ureido)-1H-pyrazol-1-yl)-N-(oxetan-3-yl)thiophene-2-carboxamide] | 98 | 105 | 81.2 | 102 | 96.5 | 62.2 | 89.8 | 98.3 | 98.8 | 97.8 | 75.9 | 110 | 108 | 100 | –
